{
  "source": "patent US6916843B1",
  "about": "“Anti-inflammatory actions of cytochrome P450 expoxygenase-derived eicosanoids” (The United States of America as represented by the …, priority 1999, dated 2005)",
  "key": {"[1]": {"system": "mononuclear cell adhesion to carotid artery", "assay": "TNF-α-induced mononuclear cell (U937) adhesion in the murine carotid artery", "format": "in vivo", "details": "mouse, intra-arterial infusion 100 ng/kg/min, TNF-α 10 μg/kg i.p., 5 hours", "description": "(§1) FIG. 3A is a graph showing the expression of VCAM-1 in the murine carotid artery at 5 hours after treatment with intraperitaneal injection of TNF-α (10 μg/kg) alone or in combination with continuous intra-arterial infusion of [11,12]-EET (100 ng/kg/min). FIG. 3B is a bar graph showing the effect of [11,12]-EET on TNF-α induced mononuclear cell adhesion in the murine carotid artery. The mononuclear cells (U937) were perfused through the carotid artery at a wall shear stress of 3 dyn/cm^2. Intra-arterial infusion of vehicle (saline) or [14,15]-EET (100 ng/kg/min) had no effect. […] All experiments except the [14,15]-EET infusion were performed in duplicate.\n(§2) To determine the functional relevance of EETs in vascular inflammation, we tested [11,12]-EET and its regioisomer [14,15]-EET in a recently developed in vivo model of TNF-α-induced VCAM-1 -mediated mononuclear cell adhesion in the murine carotid artery. […]\n(§3) Cell rolling and adhesion were recorded on videotape using stroboscopic epifluoresence illumination with an introvital microscope (objective Zeiss 20×, 0.5 numerical aperture). […] In separate experiments, VCAM-1 expression was measured in paraffin-sections (5 μm thick) of carotid arteries harvested from mice treated in the same way. […]"}, "VCAM-1": {"system": "VCAM-1", "assay": "VCAM-1 expression in the murine carotid artery after TNF-α", "format": "in vivo", "details": "mouse, intra-arterial infusion 100 ng/kg/min, TNF-α 10 μg/kg i.p., 5 hours", "description": "as §1, §2, §3"}, "VCAM-1 expression [2]": {"system": "VCAM-1 expression", "assay": "Cell-surface enzyme immunoassay of cytokine-induced VCAM-1 expression in endothelial cells", "format": "cell-based, human", "details": "human endothelial cells, 1-100 nM", "description": "FIG. 2 is a set of bar graphs of cell-surface enzyme immunoassays. […] The difference between treatment with TNF-α alone and in the presence of [11,12]-EET were statistically significant (*p<0.05, **p<0.01), OD, optical density. […] After stimulation with TNF-α (10 ng/ml) in the presence or absence of EET, promoter activity was determined relative to basal activity. *p<0.01 vs. TNF-α alone.\nTo determine the biological effects of EETs, we treated tumor necrosis factor alpha (TNF-α)-stimulated human endothelial cells with physiological relevant concentrations (1-100 nM) of [5,6]-EET, [8,9]-EET, [11,12]-EET, [14,15]-EET, [11,12]-DHET."}, "VCAM-1 expression [3]": {"system": "VCAM-1 expression", "assay": "Cell-surface enzyme immunoassay of cytokine-induced VCAM-1 expression in endothelial cells", "format": "cell-based, human", "details": "100 nM, 24 hours"}, "F2-isoprostanes": {"system": "F2-isoprostanes", "assay": "Cellular F2-isoprostanes in BAECs exposed to hypoxia-reoxygenation (GC/MS)", "format": "cell-based, bovine", "details": "CYP2J2-transfected vs GFP-transfected BAECs", "description": "F2-Isoprostane levels in BAECs were measured using a modification of the procedure described by Morrow & Roberts, 300 Methods Enzymol. 3-12 (1999). Briefly, cells were collected by treatment with trypsin and stored at −80° C. until analyzed. BHT was added to the freshly-thawed samples to inhibit oxidation during sample processing. The samples (4×10^7 cells) were incubated with KOH for 30 minutes at 40° C. The samples were then acidified to pH 3.0, 3 ng of a d4 8-iso-PGF2α internal standard was added, and the precipitated protein was removed by centrifugation at 375×g. The F2-isoprostanes in the supernatant were concentrated by passage over C18 Sep-pak (Millipore, Marlborough, Mass.), followed by Silica Sep-pak (Millipore) columns. The eluant, containing a mixture of the d4 internal standard and endogenous cellular F2-isoprostanes, was dried under nitrogen and derivatized to the pentaflorobenzyl (PFB) ester using […] according to the protocol of Schweer et al., 32 J. Mass Spectrom. 1362-1370 (1997). The PFB-derivatized isoprostanes were purified by TLC, and the bands were collected based on comparison of their Rf values to those of authentic standards. […] Quantitation was done by GC/NCI/MS on a 25m Supelco DB 5 column (Supelco, Bellefonte, Pa.). […]"}},
  "data": [
    {"molecule": "CCCCC/C=C\\C[C@H]1O[C@H]1C/C=C\\C/C=C\\CCCC(=O)O", "note": "[[11,12]-EET]", "values": [
      {"measurement": "mononuclear cell adhesion to the vessel wall", "setting": "[1]", "result": "inhibited"},
      {"measurement": "VCAM-1 expression in carotid artery", "setting": "VCAM-1", "result": "decreased"},
      {"measurement": "inhibition of TNF-α-induced VCAM-1 expression (rank/words)", "setting": "VCAM-1 expression [2]; TNF-α", "result": "most effective"},
      {"measurement": "maximal inhibition of TNF-α-induced VCAM-1 expression", "setting": "VCAM-1 expression [2]; TNF-α 10 ng/ml", "result": 75, "unit": "%"},
      {"measurement": "inhibition of IL-1α-induced VCAM-1 expression", "setting": "VCAM-1 expression [3]; IL-1α", "result": "inhibited"},
      {"measurement": "inhibition of LPS-induced VCAM-1 expression", "setting": "VCAM-1 expression [3]; LPS 10 ng/ml", "result": "inhibited"}
    ]},
    {"molecule": "CYP2J2: CYP2J2 cDNA (1.9 kb) subcloned into plasmid pcDNA3.1, transfected into endothelial cells", "values": [
      {"measurement": "hypoxia-reoxygenation-induced increase in cellular F2-isoprostanes", "setting": "F2-isoprostanes", "result": "significantly attenuated"}
    ]}
  ]
}
